Values after ≈ are worked out from the molar mass of the structure shown.
What was measured:
[1] = physchem; details: 12205-1 perfluoro ester, organic solvent or mixture
[2] = Storage stability (hydrolysis) of cabergoline in 12205-1, HPLC; assay type: physicochemical; details: room temperature, 40° C. and 50° C., FIG. 1b
Description: 0.0056 g of cabergoline was weighed in a vial. […] The mixture was vortexed well and then sonicated for 30 minutes. The suspension was filtered through a 0.2μ acrodisc. The filtrate was split into 3 vials. The vials were stored at room temperature ("RT"), 40° C. and 50° C. The vial stored at room temperature was wrapped in aluminum foil. 100 μL of sample was withdrawn as a function of time. 1 mL of pH 3.0 phosphate buffer was added to the sample and vortexed. The supernatant was taken and analyzed by HPLC as described above.

[3] = physchem; details: organic solvent or mixture
Description: 0.00471 grams ("g") of cabergoline was added to 1 milliter ("mL") of perfluorooctanol (PFO). The suspension was sonicated for 15 minutes and then filtered through a 0.45μ filter. 100 microliters ("μL") of the filtrate was extracted with 1 mL of phosphate buffer (pH 3.0). 10 μL of the aqueous portion was analyzed for cabergoline by injecting in onto the HPLC. The mobile phase was made as follows:
5.2 mL of concentrated phosphoric acid, 6.0 mL of tetrabutyl ammonium hydroxide, and 6.612 g of dibasic ammonium phosphate were added to 1500 mL of deionized water. The mixture was stirred until it formed a clear solution. To the above solution 1800 mL of acetonitrile, 400 mL of tetrahydrofuran and sufficient water were added to make 4 liters of mobile phase. The mobile phase was pumped at 1.5 mL/minute through a cyano column. The eluent was monitored at 280 nanometers ("nm").
0.00126 g of cabergoline was added to 1 mL of perfluoro-2-methyl-oxahexanoic acid, methyl ester ("12205-1"). The suspension was sonicated for 15 minutes and then filtered through a 0.45μ filter. 100 μL of the filtrate was extracted with 1 mL of phosphate buffer (pH 3.0). 10 μL of the aqueous portion was analyzed for cabergoline by injecting it onto the HPLC.

[4] = Solubility of betaxolol and dipivefrin, dissolved together, in 12205-1 (extraction into pH 3.0 phosphate buffer, reverse phase HPLC); details: 12205-1 perfluoro ester, organic solvent or mixture
[5] = Solubility of dipivefrin in 12205-1 (excess drug stirred 30 minutes, filtered, extracted with pH 3.0 phosphate buffer); assay type: physicochemical; details: 12205-1 perfluoro ester, organic solvent or mixture, vehicle 12205-1, excess dipivefrin alone, 0.2μ filter
Description: The solution was filtered through a 0.2μ filter and 100 μl of the sample was extracted with phosphate buffer (pH 3.0). The aqueous portion was analyzed for dipivefrin.

[6] = physchem; details: perfluorooctanol, organic solvent or mixture
Description: (§1) 0.01847 g of leflunomide was added to 1 mL of perfluorooctanol ("PFO"). The suspension was sonicated for 15 minutes. The suspension was filtered through a 0.45μ filter and 100 μL of the filtrate was extracted with 1 mL of the mobile phase for leflunomide. The mobile phase consisted of 40:60 of acetonitrile: 0.01m NaH2 PO4 adjusted to pH 7.0. 10 μL of the extract was injected on to a C-18 reverse phase column. The sample was eluted with the mobile phase with a flow rate of 2 mL/minute and monitored at 254 nm.
(§2) 0.00207 g of leflunomide was added to 1 mL of perfluoro-2-methyl-oxahexanoic acid, methyl ester (12205-1). The suspension was filtered through a 0.45μ filter and 100 μL of the filtrate was extracted with 1 mL of the mobile phase of leflunomide. 10 μL of the extract was injected on to HPLC to determine the solubility of leflunomide.

[7] = Solubility of leflunomide in fluoroalkyl hydrocarbon vehicle (filtration, extraction into mobile phase, HPLC); details: 12205-1 perfluoro ester, organic solvent or mixture
Description: as §1, §2

[8] = Storage stability (hydrolysis) of leflunomide in 12205-1, HPLC; assay type: physicochemical; details: 60° C. in an oven, FIG. 2b
Description: The suspension was filtered and the filtrate was put on stability testing at 60° C. in an oven. 100 μL of sample was withdrawn as a function of time. The vehicle was evaporated and the residual sample was reconstituted in 1 mL of the mobile phase for leflunomide. The sample was analyzed by HPLC to determine the leflunomide content. […] The composition is therefore expected to be stable during storage.

With `CC(C)NCC(O)COc1ccc(CCOCC2CC2)cc1` (stereo not drawn) [betaxolol] as the compound, how does the solubility [1] read?
Its solubility is > 1000 µg/mL.

Which “hydrolysis of cabergoline on storage” value [2] does the source give for `C=CCN1C[C@H](C(=O)N(CCCN(C)C)C(=O)NCC)C[C@@H]2c3cccc4[nH]cc(c34)C[C@H]21` [cabergoline] here?
Its value is “no hydrolysis”.

What about the solubility ([3]; 12205-1 perfluoro ester) of the same compound?
Its solubility is 1040 µg/mL (≈ 2290 µM).

What about the solubility ([3]; perfluorooctanol) of the same compound?
The solubility was 2700 µg/mL (≈ 5980 µM).

With `CNCC(O)c1ccc(OC(=O)C(C)(C)C)c(OC(=O)C(C)(C)C)c1` (stereo not drawn) [dipivefrin] as the compound, how does the solubility [4] read?
The solubility was > 1000 µg/mL.

And the solubility at 0.5 h [5]?
Its solubility at 0.5 h is > 1000 µg/mL.

Which solubility [6] does the source give for `Cc1oncc1C(=O)Nc1ccc(C(F)(F)F)cc1` [leflunomide] here?
The solubility was 2000 µg/mL (≈ 7400 µM).

And the solubility [7]?
Its solubility is 238 µg/mL (≈ 881 µM).

And the “hydrolysis of leflunomide on storage” value [8]?
Its value is “no hydrolysis”.
